Measurements from publication PMC6594753, “Cystic fibrosis drug ivacaftor stimulates CFTR channels at picomolar concentrations” (eLife, 2019).
Converted amounts (≈) assume the structure as drawn. “And” between values parts separate entries of the source, which are not always exact repeats. Identical values can stand only once. Like-named read-outs stand apart in the source and are kept apart here.

Legend:
WT CFTR = details: cited from earlier work
[1] = Octanol/water distribution coefficient from solubilities; type: physicochemical; details: pH=7.1
[2] = Determination of Vx-770 solubility profile (incremental solvent addition; saturated saline, 1-octanol extraction, spectrophotometry at 311 nm); type: physicochemical; details: for solubility at 24 h: aqueous saline (standard bath solution)
Source text: We reasoned that some of the reported controversies on Vx-770 effects might be explained by the use of highly supersaturated concentrations of the drug in all published studies, and set out to determine its true solubility profile. Starting from crystalline Vx-770 (Selleck Chemicals), solubilities (S) of the drug in various organic solvents could be readily determined by adding incremental small volumes of solvent until all crystals had been dissolved (Table 1). We found Vx-770 extremely soluble in anhydrous dimethyl sulfoxide (DMSO) (S ~ 0.77 M), and reasonably soluble in 1-octanol (S ~ 3.9 mM) and ethanol (S ~ 3.1 mM). […] To generate an aqueous solution exactly saturated with Vx-770, a small aliquot of crystals was added to an aqueous saline (pH = 7.1) and, after vigorous shaking for 24 hr, visible crystals were removed by repeated filtering and microcrystals sedimented by centrifugation (Materials and methods). The resulting supernatant (our ‘1x saturated’ stock solution) was then used both for determination of Vx-770 solubility (Figure 1b–c), and for functional experiments (Figures 2–5). […] Repeated extraction of the aqueous stock with 1-octanol yielded a flat spectrum ([…], green spectrum, ‘2nd extract’), confirming that all Vx-770 had been efficiently extracted in the first round.
Crystalline Vx-770 (purity 99.58% by HPLC) was purchased from Selleck Chemicals (Houston, TX, USA). Solubilities (S) at 25°C in anhydrous dimethyl sulfoxide (DMSO) (S ~ 0.77 M), 1-octanol (S ~ 3.9 mM), ethanol (S ~ 3.1 mM), octane (S ~ 2.6 mM), and pentane (S ~ 18 μM) were determined by weighing out a small amount (1–2 mg) of crystals on an analytical balance (Kern ABJ), and adding incremental small volumes of solvent, followed by mixing, until all crystals had been dissolved.
To obtain an aqueous solution (pH = 7.1) exactly saturated with Vx-770 (our ‘1x saturated’ stock), a small aliquot of Vx-770 crystals (~0.1 mg) was added to 250 ml of our standard bath solution (in mM: 134 NMDG-Cl, 2 MgCl2, 5 HEPES, 0.5 EGTA, pH = 7.1 with NMDG), and the solution was shaken for 24 hr at 25°C at 200 RPM (New Brunswick Excella E24). Remaining, clearly visible, macrocrystals were removed by filtering the solution twice through an 0.22 μm pore size filter (Millipore Durapore Steritop + Stericup, Merck KGaA, Darmstadt, Germany). To sediment invisible microcrystals, the filtrate was centrifuged at 7200 RCF for 1 hr in 50 ml conical tubes, and the supernatant carefully removed, leaving the last ~1 ml behind. The resulting cleared filtrate was stored and used as a stock solution for all subsequent studies.
The concentration of Vx-770 in the 1x saturated stock was determined by spectrophotometry (NanoPhotometer P300, Implen GmbH). […] To obtain a calibration curve, Vx-770 (from a commercial 10 mM stock dissolved in DMSO, purchased from Selleck Chemicals) was diluted into 1-octanol (saturated with water) to final concentrations of 1, 2, 4, 8, and 16 μM. Absorption spectra were measured in a 1 ml quartz cuvette against 1-octanol (saturated with water) as a blank (Figure 1b, blue spectra). To extract Vx-770 from the 1x saturated aqueous stock, two 15 ml conical tubes, each containing 14 ml of the 1x aqueous stock plus 0.7 ml 1-octanol, were vortexed for 1 min, and then centrifuged at 7200 RCF for 30 min. Approximately 2 × 0.6 ml of the 1-octanol phase was recovered, pooled, and its absorption spectrum measured in a 1 ml quartz cuvette against 1-octanol (saturated with water) as a blank (Figure 1b, red spectrum). To extract the remaining aqueous phase for a second time, the remnants of the 1-octanol phase were carefully discarded from both conical tubes, and 12.5 ml of the remaining aqueous phase (removed by inserting the pipette tip well below the surface) was transferred into two clean conical tubes. The extraction was then repeated using 2 × 0.625 ml 1-octanol, from which 2x ~ 0.5 ml was recovered, pooled, and assayed for optical density (Figure 1b, green spectrum). […]

For CC(C)(C)c1cc(C(C)(C)C)c(NC(=O)c2c[nH]c3ccccc3c2=O)cc1O [Vx-770, ivacaftor], the “maximal stimulation of WT CFTR channels” value (WT CFTR; lower end of reported range, ref Cui and McCarty, 2015) is listed as ~ 1.1 fold, the “reversibility of CFTR channel stimulation in cell-free patches” value (WT CFTR; ref Jih and Hwang, 2013, Lin et al., 2016, Yeh et al., 2015, 2017, Wang et al., 2014, 2018) is listed as “irreversible” and the EC50 (WT CFTR; ref Van Goor et al., 2014, Langron et al., 2018, read-out: previously reported K0.5 for stimulation of WT CFTR) is listed as roughly 300 nM. The “maximal stimulation of WT CFTR channels” value (WT CFTR; upper end of reported range, ref Wang et al., 2018) was ~ 3 fold, the logD ([1]; octanol/water) was 4.8 and the “octanol/water distribution coefficient Doct/wat” value [1] was 62580 and ~ 60000. For the same molecule, the solubility ([2]; 1-octanol, 25 °C, organic solvent or mixture, thermodynamic from solid, 1-octanol, 25°C, read-out: S (solubility)) was 3900 µM (≈ 1530 µg/mL), the “aqueous solubility lower than reported / generally believed” value ([2]; 25°C) was ~ 200 fold and the “aqueous solubility Saq” value ([2]; 25°C, pH = 7.1, aqueous saline) was ~ 62 nM and ~ 60 nM. It also gave a solubility ([2]; anhydrous DMSO, 25 °C, organic solvent or mixture, thermodynamic from solid, DMSO, 25°C, read-out: S (solubility)) of 770000 µM (≈ 302000 µg/mL), a solubility at 24 h ([2]; 25 °C, pH 7.1, thermodynamic from solid, water (pH=7.1), aqueous saline, 25°C, read-out: S (solubility)) of 0.062 µM (≈ 0.0243 µg/mL) and a solubility at 24 h ([2]; pH 7.1, 25°C, over pH 7.1 and 7.4, read-out: aqueous solubility estimate) of 0.05 to 0.062 µM (≈ 0.0196 to 0.0243 µg/mL). For the same molecule, the solubility at 24 h ([2]; pH 7.1, 25°C, pH = 7.1, aqueous saline, read-out: aqueous solubility Saq) was 0.06 µM (≈ 0.0235 µg/mL), the solubility ([2]; ethanol, 25 °C, organic solvent or mixture, thermodynamic from solid, ethanol, 25°C, read-out: S (solubility)) was 3100 µM (≈ 1220 µg/mL) and the pKa ([2]; inferred from solubility at pH 7.4 vs 7.1, read-out: strongest acidic pKa) was greater than 7.4. For the same molecule, the solubility ([2]; octane, 25 °C, organic solvent or mixture, thermodynamic from solid, octane, 25°C, read-out: S (solubility)) was 2600 µM (≈ 1020 µg/mL), the solubility ([2]; octane, 25°C, read-out: S (solubility)) was roughly 2600 µM (≈ 1020 µg/mL) and the “aqueous solubility at 37°C compared to that at 25°C” value ([2]; pH = 7.1, higher at 37°C) was ~ 2 fold. For the same molecule, the solubility ([2]; pentane, 25 °C, organic solvent or mixture, thermodynamic from solid, pentane, 25°C, read-out: S (solubility)) was 18 µM (≈ 7.06 µg/mL) and the solubility ([2]; pentane, 25°C, read-out: S (solubility)) was roughly 18 µM (≈ 7.06 µg/mL).
